Test results: US20250257053A1, “PESTICIDALLY ACTIVE HETEROCYCLIC DERIVATIVES WITH SULFUR CONTAINING SUBSTITUENTS” (SYNGENTA CROP PROTECTION AG, priority 2021, published 2025)

Tests used:
Type in all cases: in vivo
[1] = tested on: Chilo suppressalis (Striped Rice Stemborer); assay: Activity against Chilo suppressalis (striped rice stemborer), artificial diet in 24-well microtiter plates; conditions: 144 h, application rate 200 ppm, L2 larvae, 6 days after infestation, in comparison to untreated samples, read-out: control (at least one of mortality, anti-feedant effect, growth inhibition)
Experimental: Example B1: Activity Against Chilo suppressalis (Striped Rice Stemborer)
24-well microtiter plates with artificial diet were treated with aqueous test solutions prepared from 10′000 ppm DMSO stock solutions by pipetting. After drying, the plates were infested with L2 larvae (6-8 per well). The samples were assessed for mortality, anti-feeding effect, and growth inhibition in comparison to untreated samples 6 days after infestation. Control of Chilo suppressalis by a test sample is given when at least one of the categories mortality, anti-feedant effect, and growth inhibition is higher than the untreated sample.

[2] = tested on: Diabrotica Balteata (Corn Root Worm); assay: Activity against Diabrotica balteata (corn root worm), sprayed maize sprouts on agar; conditions: 96 h, application rate 200 ppm, L2 larvae, 4 days after infestation, in comparison to untreated samples, read-out: effect in at least one of the two categories (mortality or growth inhibition)
Experimental: Example B2: Activity Against Diabrotica Balteata (Corn Root Worm)
Maize sprouts placed onto an agar layer in 24-well microtiter plates were treated with aqueous test solutions prepared from 10′000 ppm DMSO stock solutions by spraying. After drying, the plates were infested with L2 larvae (6 to 10 per well). The samples were assessed for mortality and growth inhibition in comparison to untreated samples 4 days after infestation.

[3] = tested on: Plutella xylostella (Diamond Back Moth); assay: Activity against Plutella xylostella (diamond back moth), artificial diet in 24-well microtiter plates; conditions: 192 h, application rate 200 ppm, eggs, 8 days after infestation, in comparison to untreated samples, read-out: effect in at least one of the two categories (mortality or growth inhibition)
Experimental: Example B6: Activity Against Plutella xylostella (Diamond Back Moth)
24-well microtiter plates with artificial diet were treated with aqueous test solutions prepared from 10′000 ppm DMSO stock solutions by pipetting. After drying, Plutella eggs were pipetted through a plastic stencil onto a gel blotting paper and the plate was closed with it. The samples were assessed for mortality and growth inhibition in comparison to untreated samples 8 days after infestation. The following compounds gave an effect of at least 80% in at least one of the two categories (mortality or growth inhibition) at an application rate of 200 ppm: P2, P3, P4, P5, P7, P9, P10, P11, P13, P14, P15.

[4] = tested on: Spodoptera littoralis (Egyptian Cotton Leaf Worm); assay: Activity against Spodoptera littoralis (Egyptian cotton leaf worm), sprayed cotton leaf discs; conditions: foliar, 72 h, application rate 200 ppm, five L1 larvae, 3 days after infestation, in comparison to untreated samples, read-out: control (at least one of mortality, anti-feedant effect, growth inhibition)
Experimental: Example B7: Activity Against Spodoptera littoralis (Egyptian Cotton Leaf Worm)
Cotton leaf discs were placed onto agar in 24-well microtiter plates and sprayed with aqueous test solutions prepared from 10′000 ppm DMSO stock solutions. After drying the leaf discs were infested with five L1 larvae. The samples were assessed for mortality, anti-feeding effect, and growth inhibition in comparison to untreated samples 3 days after infestation. Control of Spodoptera littoralis by a test sample is given when at least one of the categories mortality, anti-feedant effect, and growth inhibition is higher than the untreated sample.

[5] = tested on: Euschistus heros (Neotropical Brown Stink Bug); assay: Activity against Euschistus heros (neotropical brown stink bug), sprayed soybean leaves on agar; conditions: 120 h, application rate 200 ppm, N2 nymphs, 5 days after infestation, in comparison to untreated samples, read-out: effect in at least one of the two categories (mortality or growth inhibition)
Experimental: Example B3: Activity Against Euschistus heros (Neotropical Brown Stink Bug)
Soybean leaves on agar in 24-well microtiter plates were sprayed with aqueous test solutions prepared from 10′000 ppm DMSO stock solutions. After drying the leaves were infested with N2 nymphs. The samples were assessed for mortality and growth inhibition in comparison to untreated samples 5 days after infestation.

[6] = tested on: Myzus persicae (Green Peach Aphid); assay: Activity against Myzus persicae (green peach aphid), feeding/contact activity, sunflower leaf discs; conditions: foliar, 144 h, application rate 200 ppm, aphid population of mixed ages, 6 days after infestation
Experimental: Example B4: Activity Against Myzus persicae (Green Peach Aphid) Feeding/Contact Activity
Sunflower leaf discs were placed onto agar in a 24-well microtiter plate and sprayed with aqueous test solutions prepared from 10′000 ppm DMSO stock solutions. After drying, the leaf discs were infested with an aphid population of mixed ages. The samples were assessed for mortality 6 days after infestation.

[7] = tested on: Myzus persicae (Green Peach Aphid); assay: Activity against Myzus persicae (green peach aphid), systemic activity, pea seedling roots in test solution; conditions: 144 h, test rate 24 ppm, aphid population of mixed ages, 6 days after placing seedlings into test solutions
Experimental: Example B5: Activity Against Myzus persicae (Green Peach Aphid) Systemic Activity
Roots of pea seedlings infested with an aphid population of mixed ages were placed directly into aqueous test solutions prepared from 10′000 DMSO stock solutions. The samples were assessed for mortality 6 days after placing seedlings into test solutions.

CCS(=O)(=O)c1cc(Br)cnc1-c1coc2cc(C(F)(F)F)ccc2c1=O [P9, 3-(5-bromo-3-ethylsulfonyl-2-pyridyl)-7-(trifluoromethyl)-chromen-4-one]
≥ 80%: percent control (mortality, anti-feedant effect or growth inhibition) at 200 ppm [1] | percent control (mortality or growth inhibition) at 200 ppm [2] | effect (mortality or growth inhibition) at 200 ppm [3] | percent control (mortality, anti-feedant effect or growth inhibition) at 200 ppm [4]

CCS(=O)(=O)c1cc(C2(C#N)CC2)cnc1-c1cn(C)c2cc(C(F)(F)F)ccc2c1=O [P14, 1-[5-ethylsulfonyl-6-[1-methyl-4-oxo-7-(trifluoromethyl)-3-quinolyl]-3-pyridyl]-cyclo-propanecarbonitrile]
≥ 80%: percent control (mortality, anti-feedant effect or growth inhibition) at 200 ppm [1] | percent control (mortality or growth inhibition) at 200 ppm [2] | percent control (mortality or growth inhibition) at 200 ppm [5] | mortality at 200 ppm [6] | mortality at 24 ppm [7] | effect (mortality or growth inhibition) at 200 ppm [3] | percent control (mortality, anti-feedant effect or growth inhibition) at 200 ppm [4]

CCS(=O)(=O)c1cccnc1-c1coc2cc(C(F)(F)F)ccc2c1=O [P2, 3-(3-ethylsulfonyl-2-pyridyl)-7-(trifluoromethyl)chromen-4-one]
≥ 80%: percent control (mortality, anti-feedant effect or growth inhibition) at 200 ppm [1] | percent control (mortality or growth inhibition) at 200 ppm [2] | percent control (mortality or growth inhibition) at 200 ppm [5] | mortality at 200 ppm [6] | mortality at 24 ppm [7] | effect (mortality or growth inhibition) at 200 ppm [3] | percent control (mortality, anti-feedant effect or growth inhibition) at 200 ppm [4]

CCS(=O)(=O)c1cc(C2(C#N)CC2)cnc1-c1coc2cc(OC(F)F)ccc2c1=O [P13, 1-[6-[7-(difluoromethoxy)-4-oxo-chromen-3-yl]-5-ethylsulfonyl-3-pyridyl]-cyclo-propanecarbonitrile]
≥ 80%: percent control (mortality, anti-feedant effect or growth inhibition) at 200 ppm [1] | percent control (mortality or growth inhibition) at 200 ppm [2] | percent control (mortality or growth inhibition) at 200 ppm [5] | mortality at 200 ppm [6] | mortality at 24 ppm [7] | effect (mortality or growth inhibition) at 200 ppm [3] | percent control (mortality, anti-feedant effect or growth inhibition) at 200 ppm [4]

CCS(=O)(=O)c1ccc(C2CC2)nc1-c1coc2cc(C(F)(F)F)ccc2c1=O [P10, 3-(6-cyclopropyl-3-ethylsulfonyl-2-pyridyl)-7-(trifluoromethyl) chromen-4-one]
≥ 80%: percent control (mortality, anti-feedant effect or growth inhibition) at 200 ppm [1] | percent control (mortality or growth inhibition) at 200 ppm [2] | mortality at 200 ppm [6] | effect (mortality or growth inhibition) at 200 ppm [3] | percent control (mortality, anti-feedant effect or growth inhibition) at 200 ppm [4]

CCSc1cc(C2(C#N)CC2)cnc1-c1coc2cc(C(F)(F)F)ccc2c1=O [P3, 1-[5-ethylsulfanyl-6-[4-oxo-7-(trifluoromethyl)chromen-3-yl]-3-pyridyl]cyclopropane-carbonitrile]
≥ 80%: percent control (mortality or growth inhibition) at 200 ppm [2] | percent control (mortality or growth inhibition) at 200 ppm [5] | mortality at 200 ppm [6] | effect (mortality or growth inhibition) at 200 ppm [3] | percent control (mortality, anti-feedant effect or growth inhibition) at 200 ppm [4]

CCS(=O)(=O)c1cc(C2CC2)cnc1-c1coc2cc(C(F)(F)F)ccc2c1=O [P11, 3-(5-cyclopropyl-3-ethylsulfonyl-2-pyridyl)-7-(trifluoromethyl) chromen-4-one]
≥ 80%: percent control (mortality, anti-feedant effect or growth inhibition) at 200 ppm [1] | percent control (mortality or growth inhibition) at 200 ppm [2] | percent control (mortality or growth inhibition) at 200 ppm [5] | mortality at 200 ppm [6] | mortality at 24 ppm [7] | effect (mortality or growth inhibition) at 200 ppm [3] | percent control (mortality, anti-feedant effect or growth inhibition) at 200 ppm [4]

CCS(=O)(=O)c1cc(C2(C#N)CC2)cnc1-c1coc2cc(OC(F)(F)F)ccc2c1=O [P15, 1-[5-ethylsulfonyl-6-[4-oxo-7-(trifluoromethoxy)chromen-3-yl]-3-pyridyl]-cyclopropane-carbonitrile]
≥ 80%: percent control (mortality, anti-feedant effect or growth inhibition) at 200 ppm [1] | percent control (mortality or growth inhibition) at 200 ppm [2] | percent control (mortality or growth inhibition) at 200 ppm [5] | mortality at 200 ppm [6] | effect (mortality or growth inhibition) at 200 ppm [3] | percent control (mortality, anti-feedant effect or growth inhibition) at 200 ppm [4]

CCS(=O)(=O)c1cc(C(C)(C)C#N)cnc1-c1coc2cc(C(F)(F)F)ccc2c1=O [P5, 2-[5-ethylsulfonyl-6-[4-oxo-7-(trifluoromethyl)chromen-3-yl]-3-pyridyl]-2-methyl-propane-nitrile]
≥ 80%: percent control (mortality, anti-feedant effect or growth inhibition) at 200 ppm [1] | percent control (mortality or growth inhibition) at 200 ppm [2] | percent control (mortality or growth inhibition) at 200 ppm [5] | mortality at 200 ppm [6] | mortality at 24 ppm [7] | effect (mortality or growth inhibition) at 200 ppm [3] | percent control (mortality, anti-feedant effect or growth inhibition) at 200 ppm [4]

CCS(=O)(=O)c1cc(C2(C#N)CC2)cnc1-c1c(C)oc2cc(C(F)(F)F)ccc2c1=O [P7, 1-[5-ethylsulfonyl-6-[2-methyl-4-oxo-7-(trifluoromethyl)chromen-3-yl]-3-pyridyl] cyclopropane-carbonitrile]
≥ 80%: percent control (mortality, anti-feedant effect or growth inhibition) at 200 ppm [1] | percent control (mortality or growth inhibition) at 200 ppm [2] | percent control (mortality or growth inhibition) at 200 ppm [5] | mortality at 200 ppm [6] | mortality at 24 ppm [7] | effect (mortality or growth inhibition) at 200 ppm [3] | percent control (mortality, anti-feedant effect or growth inhibition) at 200 ppm [4]

CCS(=O)(=O)c1cc(Br)cnc1-c1c(C)oc2cc(C(F)(F)F)ccc2c1=O [P8, 3-(5-bromo-3-ethylsulfonyl-2-pyridyl)-2-methyl-7-(trifluoromethyl) chromen-4-one]
≥ 80%: percent control (mortality, anti-feedant effect or growth inhibition) at 200 ppm [1] | percent control (mortality, anti-feedant effect or growth inhibition) at 200 ppm [4]

CCS(=O)(=O)c1cc(-c2ccc(F)cc2)cnc1-c1coc2cc(C(F)(F)F)ccc2c1=O [P16, 3-[3-ethylsulfonyl-5-(4-fluorophenyl)-2-pyridyl]-7-(trifluoromethyl)chromen-4-one]
≥ 80%: percent control (mortality, anti-feedant effect or growth inhibition) at 200 ppm [4]

CCS(=O)(=O)c1cc(C2(C#N)CC2)cnc1-c1coc2cc(C(F)(F)F)ccc2c1=O [P4, 1-[5-ethylsulfonyl-6-[4-oxo-7-(trifluoromethyl)chromen-3-yl]-3-pyridyl]cyclopropane-carbonitrile]
≥ 80%: percent control (mortality, anti-feedant effect or growth inhibition) at 200 ppm [1] | percent control (mortality or growth inhibition) at 200 ppm [2] | percent control (mortality or growth inhibition) at 200 ppm [5] | mortality at 200 ppm [6] | mortality at 24 ppm [7] | effect (mortality or growth inhibition) at 200 ppm [3] | percent control (mortality, anti-feedant effect or growth inhibition) at 200 ppm [4]
